# Source: patent US6683027B2, “Herbicidal mixtures” (BASF Aktienegesellschaft, priority 2000, dated 2004)
# Key:
# Experiment in all cases: greenhouse pre-emergence trial, percent damage vs untreated control 21 days after treatment
# Assay type in all cases: in vivo
# Lolium perenne = details: 15 g/ha, LOLPE, Example 2
# Veronica persica = details: VERPE, Example 2
# Stellaria media = details: 30 g/ha, STEME, Example 2
# Galium aparine = details: GALAP, Example 2
# Matricaria inodora = details: MATIN, Example 2
# Papaver rhoeas = details: PAPRH, Example 2
compound,measurement,setting,value
CC(C)N(C(=O)COc1nnc(C(F)(F)F)s1)c1ccc(F)cc1 [flufenacet],flufenacet alone (% control),Lolium perenne,30%
same,flufenacet alone (% control),Veronica persica; 15 g/ha,0%
same,flufenacet alone (% control),Veronica persica; 30 g/ha,10%
same,flufenacet alone (% control),Veronica persica; 60 g/ha,10%
same,flufenacet alone (% control),Stellaria media,0%
same,flufenacet alone (% control),Galium aparine; 15 g/ha,0%
same,flufenacet alone (% control),Galium aparine; 30 g/ha,10%
same,flufenacet alone (% control),Galium aparine; 60 g/ha,55%
same,flufenacet alone (% control),Matricaria inodora; 15 g/ha,0%
same,flufenacet alone (% control),Matricaria inodora; 30 g/ha,0%
same,flufenacet alone (% control),Papaver rhoeas; 15 g/ha,0%
same,flufenacet alone (% control),Papaver rhoeas; 30 g/ha,0%
same,flufenacet alone (% control),Papaver rhoeas; 60 g/ha,0%
